Measured values from paper PMC6178183, “Development of a HPLC-MS/MS Method to Determine 11 Bioactive Compounds in Tongmai Yangxin Pill and Application to a Pharmacokinetic Study in Rats” (Evidence-based Complementary and Alternative Medicine : eCAM, 2018).
“And” between values parts separate entries of the source, which are not always exact repeats. Equal entries are not always repeated.

What was measured:
[1] = parameters: method as in PMID 25943824; conditions: active ingredients of TMYX with high R values; cited from earlier work
[2] = Pharmacokinetic study in rats after oral administration of TMYX extract (HPLC-MS/MS of plasma); assay type: in vivo, Sprague–Dawley rats; conditions: rat plasma; for AUC(0-inf) / half-life / AUC / k el: male, Sprague-Dawley; for AUC: read-out: AUC (0-tn); for k el: read-out: K e (converted); for T max1: n=6, mean ± SD
Experimental: The HPLC-MS/MS system consists of an Agilent 1200 high-performance liquid chromatography coupled with an Aglient 6430 series triple quadrupole mass spectrometer with an electrospray ionization (ESI) source. The chromatographic separation was achieved on a CORTECS C18 column (4.6 mm × 150 mm, 2.7 μm), and the column temperature was kept at 30°C. Mobile phases which consisted of 0.1% formic acid in water (A) and acetonitrile (B) were used in the following gradient elution method: 0-10 min, 10%-85% B; 10-13 min, 85%-95% B; 13-19 min, 95%-95% B. The flow rate was set at 0.3 mL/min, and the injection volume was 10 μL. All data were analyzed by Mass Hunter workstation software (Agilent Technologies, USA).
The mass spectrometer was carried out in both positive and negative ionization multiple-reaction monitoring (MRM) mode. The source parameters were as follows: the capillary voltage set at 300 V for positive ionization mode and -300 V for negative ionization mode, the drying gas temperature was 320°C, the flow was 11 L/min, and nebulizing gas pressure was 30 psi.
The plasma (100 μL) was spiked with 20 μL of methanol, 20 μL of the IS (icariin, 1 μg/mL), and 20 μL of formic acid and then vortex-mixed. The mixture was extracted with 800 μL of ethyl acetate by vortex mixing for 5 min at room temperature. After centrifugation at 14,000 rpm for 10 min, the supernatant was collected to a clean tube and evaporated to dryness under a nitrogen stream. The residue was reconstituted in 50 μL of 50% methanol, vortexed for 5 min, and centrifuged at 14,000 rpm for 10 min. Finally, 10 μL supernatant was injected into the LC-MS/MS system for analysis.
Male Sprague–Dawley rats (230-250 g) were obtained from Beijing HFK Experimental Animal Technology Co., Ltd. The rats were maintained under the control environmental conditions and they fasted for 12 h with free access to water before the experiments. TMYX extracts were dissolved in CMC-Na and administrated orally to rats at 8.3 g/kg. The blood samples (200 μL) were collected from the rat fossa orbitalis vein at 0, 0.03, 0.083, 0.17, 0.25, 0.5, 1, 2, 4, 6, 8, 10, 12, 24, 36, and 48 h after oral administration to heparinized tubes. And then the blood samples were centrifuged at 7,000 rpm for 10 min to get the plasma sample immediately. Finally, the plasma obtained was stored at −70°C until analysis. Pharmacokinetic parameters were calculated by the computer program “Drug and Statistics 2.0” (DAS 2.0) (Medical College of Wannan, China).

[3] = Stability of analytes in rat plasma QC samples under storage conditions; assay type: in vitro ADME; conditions: n=6, gallic acid, ononin, schisandrin, stilbene glycoside, liquiritigenin, rhein, verbascoside; for Measured Concentration, auto-sampler for 12 h: prepared rat plasma samples; for Measured Concentration, -70°C for 14 days / Measured Concentration, room temperature for 6 h / Measured Concentration, three freeze-thaw cycles: rat plasma
Experimental: Quality control (QC) samples at three concentrations (low, medium, and high concentration) were made up of appropriate mixed standard solutions with blank blood sample as calibration solutions to meet the required concentrations. All the solutions were kept at 4°C.
The stability of analytes in plasma samples was determined by analyzing QC samples of three concentration levels at different conditions: stored at autosampler for 12 h, at room temperature for 6 h, under three freeze-thaw cycles and stored at -70°C for 14 days. All stability studies were measured in six replicates.

[4] = oral TMYX extract 8.3 g/kg single dose, n=6
[5] = oral TMYX extract 8.3 g/kg single dose
[6] = high QC: spiked 2000 ng/mL glycyrrhizic acid, 1000 liquiritin, 200 emodin, 100 isoliquiritigenin
[7] = low QC: spiked 20 ng/mL glycyrrhizic acid, 10 liquiritin, 2 emodin, 1 isoliquiritigenin
[8] = medium QC: spiked 200 ng/mL glycyrrhizic acid, 100 liquiritin, 20 emodin, 10 isoliquiritigenin
[9] = second peak, oral TMYX extract 8.3 g/kg single dose, n=6

SMILES | AUC(0-inf) [2, 4] | half-life [2, 4] | AUC [2, 4] | k el [2, 4] | C max1 [2, 4] | T max1 [2, 5] | Measured Concentration, auto-sampler for 12 h [3, 6] | Measured Concentration, auto-sampler for 12 h [3, 7] | Measured Concentration, auto-sampler for 12 h [3, 8] | Measured Concentration, -70°C for 14 days [3, 6] | Measured Concentration, room temperature for 6 h [3, 6] | Measured Concentration, three freeze-thaw cycles [3, 6] | Measured Concentration, -70°C for 14 days [3, 7] | Measured Concentration, room temperature for 6 h [3, 7] | Measured Concentration, three freeze-thaw cycles [3, 7] | Measured Concentration, -70°C for 14 days [3, 8] | Measured Concentration, room temperature for 6 h [3, 8] | Measured Concentration, three freeze-thaw cycles [3, 8] | antiinflammatory effects [1] | further results
COc1ccc(-c2coc3cc(O)ccc3c2=O)cc1 [formononetin] |  |  |  |  |  |  |  |  |  |  |  |  |  |  |  |  |  |  | exert antiinflammatory effects in a dose-dependent manner | 
COc1cc2c(c(OC)c1OC)-c1c3cc4c(c1OC[C@@H](C)[C@@](C)(O)C(=O)O[C@@H]2[C@@](C)(O)[C@@H](C)C3)OCO4 [gomisin D] |  |  |  |  |  |  |  |  |  |  |  |  |  |  |  |  |  |  | exert antiinflammatory effects in a dose-dependent manner | 
O=C(/C=C/c1ccc(O)cc1)c1ccc(O)cc1O [isoliquiritigenin] | 436 ± 154 ng·h/mL | 13.5 ± 8.33 h | 410 ± 131 ng·h/mL | 1.94e-05 s⁻¹ | 41.6 ± 24.2 ng/mL | 0.28 h and 0.28 ± 0.11 h | 97.47 ± 1.99 ng/mL | 1.00 ± 0.02 ng/mL | 9.60 ± 0.04 ng/mL | 100.74 ± 2.95 ng/mL | 106.11 ± 0.78 ng/mL | 100.58 ± 0.91 ng/mL | 0.89 ± 0.01 ng/mL | 0.99 ± 0.01 ng/mL | 0.89 ± 0.02 ng/mL | 8.62 ± 0.04 ng/mL | 10.86 ± 0.60 ng/mL | 8.69 ± 0.14 ng/mL |  | detection in vivo at 48 h ([2]; 48 h after oral TMYX extract 8.3 g/kg): can still be detected in vivo at 48 h; peaks in the mean plasma concentration-time profile ([2]; oral TMYX extract 8.3 g/kg): double peaks; C max2 [2, 9]: 24.9 ± 13.5 ng/mL; T max2 [2, 9]: 7.00 h and 7.00 ± 2.45 h
O=C1C[C@@H](c2ccc(O[C@@H]3O[C@H](CO)[C@@H](O)[C@H](O)[C@H]3O)cc2)Oc2cc(O)ccc21 [liquiritin] | 651 ± 220 ng·h/mL | 2.16 ± 1.44 h | 637 ± 220 ng·h/mL | 0.000214 s⁻¹ | 199.9 ± 120.2 ng/mL | 0.50 ± 0.46 h | 869.12 ± 14.52 ng/mL | 10.26 ± 0.11 ng/mL | 108.02 ± 0.66 ng/mL | 1021.69 ± 19.98 ng/mL | 1076.07 ± 10.27 ng/mL | 952.89 ± 11.22 ng/mL | 10.04 ± 0.12 ng/mL | 9.85 ± 0.09 ng/mL | 9.26 ± 0.16 ng/mL | 105.05 ± 1.73 ng/mL | 108.97 ± 1.51 ng/mL | 109.67 ± 1.86 ng/mL |  | 
O=C(O)c1cc(O)c(O)c(O)c1 [gallic acid] | 238 ± 173 ng·h/mL | 3.01 ± 1.35 h | 215 ± 137 ng·h/mL | 7.5e-05 s⁻¹ | 56.9 ± 42.8 ng/mL | 0.75 ± 0.67 h | 184.54 ± 2.46 ng/mL | 2.03 ± 0.05 ng/mL | 19.27 ± 0.35 ng/mL | 199.19 ± 1.80 ng/mL | 205.97 ± 2.14 ng/mL | 196.77 ± 1.09 ng/mL | 1.99 ± 0.04 ng/mL | 1.97 ± 0.03 ng/mL | 1.93 ± 0.04 ng/mL | 19.26 ± 0.22 ng/mL | 20.77 ± 1.09 ng/mL | 20.08 ± 0.51 ng/mL |  | 

Further lines, with some results ahead:

AUC(0-inf) [2, 4] | half-life [2, 4] | AUC [2, 4] | k el [2, 4] | C max1 [2, 4] | T max1 [2, 5] | Measured Concentration, auto-sampler for 12 h [3, 6] | Measured Concentration, auto-sampler for 12 h [3, 7] | Measured Concentration, auto-sampler for 12 h [3, 8] | Measured Concentration, -70°C for 14 days [3, 6] | Measured Concentration, room temperature for 6 h [3, 6] | Measured Concentration, three freeze-thaw cycles [3, 6] | Measured Concentration, -70°C for 14 days [3, 7] | Measured Concentration, room temperature for 6 h [3, 7] | Measured Concentration, three freeze-thaw cycles [3, 7] | Measured Concentration, -70°C for 14 days [3, 8] | Measured Concentration, room temperature for 6 h [3, 8] | Measured Concentration, three freeze-thaw cycles [3, 8] | SMILES | antiinflammatory effects [1] | further results
473 ± 321 ng·h/mL | 2.73 ± 1.54 h | 411 ± 239 ng·h/mL | 9.44e-05 s⁻¹ | 92.6 ± 53.0 ng/mL | 1.00 ± 0.92 h | 196.02 ± 2.10 ng/mL | 1.83 ± 0.02 ng/mL | 18.35 ± 0.09 ng/mL | 183.83 ± 1.00 ng/mL | 194.61 ± 1.13 ng/mL | 189.32 ± 1.74 ng/mL | 1.77 ± 0.03 ng/mL | 2.00 ± 0.04 ng/mL | 1.71 ± 0.01 ng/mL | 17.86 ± 0.20 ng/mL | 21.15 ± 0.50 ng/mL | 18.28 ± 0.23 ng/mL | COc1cc2c(c(OC)c1OC)-c1c(cc(OC)c(OC)c1OC)C[C@](C)(O)[C@@H](C)C2 [schisandrin] | exert antiinflammatory effects in a dose-dependent manner | 
61 ± 29.8 ng·h/mL | 1.53 ± 0.67 h | 51.4 ± 29.8 ng·h/mL | 0.000156 s⁻¹ | 23.4 ± 8.7 ng/mL | 0.37 ± 0.18 h | 93.52 ± 0.27 ng/mL | 1.05 ± 0.02 ng/mL | 9.50 ± 0.04 ng/mL | 107.40 ± 1.47 ng/mL | 103.95 ± 1.33 ng/mL | 108.42 ± 1.17 ng/mL | 1.01 ± 0.02 ng/mL | 0.92 ± 0.01 ng/mL | 1.09 ± 0.01 ng/mL | 9.81 ± 0.22 ng/mL | 9.57 ± 0.21 ng/mL | 10.17 ± 0.90 ng/mL | C[C@@H]1O[C@@H](O[C@@H]2[C@@H](O)[C@H](OCCc3ccc(O)c(O)c3)O[C@H](CO)[C@H]2OC(=O)/C=C/c2ccc(O)c(O)c2)[C@H](O)[C@H](O)[C@H]1O [verbascoside] |  | 
152 ± 61.3 ng·h/mL | 2.84 ± 2.13 h | 145 ± 52.6 ng·h/mL | 0.000156 s⁻¹ | 46.3 ± 15.6 ng/mL | 0.36 ± 0.31 h | 97.32 ± 1.05 ng/mL | 0.97 ± 0.01 ng/mL | 9.86 ± 0.09 ng/mL | 85.95 ± 0.39 ng/mL | 101.97 ± 1.07 ng/mL | 86.7 ± 1.33 ng/mL | 0.95 ± 0.05 ng/mL | 0.97 ± 0.02 ng/mL | 0.98 ± 0.03 ng/mL | 8.71 ± 0.11 ng/mL | 10.23 ± 0.04 ng/mL | 8.89 ± 0.08 ng/mL | O=C(O)c1cc(O)c2c(c1)C(=O)c1cccc(O)c1C2=O [rhein] |  | 
